The record followed here is patent publication US20240049706A1, “COMPOSITIONS AND METHODS FOR CONTROLLING INSECTS” (priority 2020, published 2024).

The conditions of series [1]: 7 days, 20 mg/mL.
Text: One replicate of each EO per treatment was collected daily and tested for EO content. Results were reported as concentration of EO as function of time for each stability condition.
The conditions of series [2]: 20 mg/mL; for percentage existing / remaining (not damaged) after autoxidation: 168 h; for percentage degraded by autoxidation: 7 days.
Text: Results were reported as concentration of EO as function of time for each stability condition.
Series [3] is described as follows: Loading (encapsulation) efficacy of essential oils into AgriCell, UV-Vis after ethanol extraction. The class given is physicochemical. The conditions noted are these: EO encapsulated into AgriCell; original concentration of EO 200 mg/mL. The protocol: After […] are purified, the concentrated […] paste or dry lyophilized powder is loaded with EOs. If dry, the […] are first homogenized into a finer powder through mechanical homogenization. A stock solution from each EO is prepared in ethanol at 100 mg/mL-200 mg/mL. Lyophilized […] would then be suspended in a solution with the EO solution at a ratio of 1 g of dry […] to 10 mL of EO solution. Once resuspended, the ethanol is allowed to evaporate overnight, leaving behind EO encapsulated […] in the process. After this overnight period, encapsulated […] are removed from the beaker, and the EO-encapsulated […] powder is mechanically homogenized. This encapsulated product is ready for resuspension in its appropriate medium.

For the compound `C=CCc1ccc(O)c(OC)c1` [free eugenol, Eugenol], the “percentage of degradation (thermal)” value in series [1] is listed as 82.7%. Moreover, in series [2], the “percentage existing / remaining (not damaged) after autoxidation” value turned out to be 17.3% and the “percentage degraded by autoxidation” value is 82.7%. Moreover, the encapsulation efficacy in series [3] is recorded as 95.5%.
On to `Cc1ccc(C(C)C)c(O)c1` [free thymol, thymol], for which the “percentage of degradation (thermal)” value in series [1] was found to be 79.1%. Besides, in series [2], the “percentage existing / remaining (not damaged) after autoxidation” value amounted to 44.2% and the “percentage degraded by autoxidation” value is listed as 55.8%. In series [3], this compound gave an encapsulation efficacy of 91.8%.
